The text below walks through data of patent US6407248B1, “α-unsaturated amines, their production and use” (Takeda Chemical Industries, Ltd., priority 1987, dated 2002).

Broadly, the mortality is the share of the test organisms that died.

One data set relates to Brown Planthoppers (Nilaparvata lugens). Kind of data set: Effect against brown planthoppers (foliar spray on rice seedlings). As to conditions: Nilaparvata lugens, foliar, 168 h, read-out: % Mortality after 7 days. The format is in vivo. On the procedure:
Effect Against Brown Planthoppers (Nilaparvata lugens)
An emulsifiable concentrate of the compound of the invention, prepared in the same manner as Example 112 below, was diluted with water to a concentration of 500 ppm and sprayed over the stems and leaves of rice seedlings in the 2-leaf stage at the rate of 10 ml per paper pot. Water was put in test tubes and the treated rice seedlings were placed therein. Then, 10 brown planthopper larvae were released in each tube, which was then capped with an aluminum cap. The test tubes were maintained in an incubator at 25° C. and the dead insects were counted 7 days after release. The % mortality was calculated using the following formula. [formula]
With `CNC(=C[N+](=O)[O-])NCc1cccnc1` [Compound 3, 1-Methylamino-1-(3-pyridylmethyl)amino-2-nitroethylene], the mortality at 500 µg/mL came out at 100%.

In the case of `CCNC(=C[N+](=O)[O-])NCc1cccnc1` [Compound 4, 1-Ethylamino-1-(3-pyridylmethyl)amino-2-nitroethylene], the mortality at 500 µg/mL was found to be 100%.

For `C[Si](C)(C)CNC(=C[N+](=O)[O-])NCc1cccnc1` [Compound 17, 1-(3-Pyridylmethyl)amino-1-(trimethylsilylmethyl)amino-2-nitroethylene], the mortality at 500 µg/mL came to 100%.

For `NNC(=C[N+](=O)[O-])NCc1cccnc1` [Compound 18, 1-Hydrazino-1-(3-pyridylmethyl)amino-2-nitroethylene], the mortality at 500 µg/mL amounted to 100%.

Turning to `CN(C)C(=C[N+](=O)[O-])NCc1cccnc1` [Compound 19, 1-Dimethylamino-1-(3-pyridylmethyl)amino-2-nitroethylene], the mortality at 500 µg/mL was 100%.

On to `CNC(=C[N+](=O)[O-])NCc1ccc(Cl)nc1` [Compound 28, 1-(6-Chloro-3-pyridylmethyl)amino-1-methylamino-2-nitroethylene], for which the mortality at 500 µg/mL was found to be 100%.

Turning to `CN(C)C(=C[N+](=O)[O-])NCc1ccc(Cl)nc1` [Compound 46, 1-(6-Chloro-3-pyridylmethyl)amino-1-dimethylamino-2-nitroethylene], the mortality at 500 µg/mL came to 100%.

As for `CNC(=C[N+](=O)[O-])NCc1ccc(Cl)nc1Cl` [Compound 47, 1-(2,6-Dichloro-3-pyridylmethyl)amino-1-methylamino-2-nitroethylene], the mortality at 500 µg/mL was found to be 100%.

Turning to `CC(C)N(Cc1ccc(Cl)nc1)C(N)=C[N+](=O)[O-]` [Compound 49, 1-Amino-1-(N-(6-chloro-3-pyridylmethyl)-N-i-propyl]amino-2-nitroethylene], the mortality at 500 µg/mL is 100%.

Turning to `CCN(C)C(=C[N+](=O)[O-])NCc1ccc(Cl)nc1` [Compound 50, 1-(6-Chloro-3-pyridylmethyl)amino-1-(N-ethyl-N-methyl)amino-2-nitroethylene], the mortality at 500 µg/mL came out at 100%.

Consider `NNC(=C[N+](=O)[O-])NCc1ccc(Cl)nc1` [Compound 51, 1-(6-Chloro-3-pyridylmethyl)amino-1-hydrazino-2-nitroethylene], for which the mortality at 500 µg/mL came to 100%.

Take `CN(C)NC(=C[N+](=O)[O-])NCc1ccc(Cl)nc1` [Compound 52, 1-(6-Chloro-3-pyridylmethyl)amino-1-(2,2-dimethyl-1-hydrazino)-2-nitroethylene]: the mortality at 500 µg/mL was 100%.

As for `CN(C)C(=C[N+](=O)[O-])N(C)Cc1ccc(Cl)nc1` [Compound 58, 1-[N-(6-Chloro-3-pyridylmethyl)-N-methyl]amino-1-dimethylamino-2-nitroethylene], the mortality at 500 µg/mL amounted to 100%.

On to `CCN(Cc1ccc(Cl)nc1)C(N)=C[N+](=O)[O-]` [Compound 59, 1-Amino-1-[N-(6-chloro-3-pyridylmethyl)-N-ethyl]-amino-2-nitroethylene], for which the mortality at 500 µg/mL was found to be 100%.

Still in this data set, the particulars now being: Nilaparvata lugens, foliar, 168 h; emulsifiable concentrate diluted with water to 500 ppm, sprayed on rice seedlings (2-leaf stage), 10 ml per paper pot; 10 larvae per tube; 25° C.; dead insects counted 7 days after release; read-out: % Mortality after 7 days.
As to `C=CCNC(=C[N+](=O)[O-])NCc1cccnc1` [Compound 7, 1-Allylamino-1-(3-pyridylmethyl)amino-2-nitroethylene], the mortality at 500 µg/mL amounted to 100%.

Turning to `CN(C)CCNC(=C[N+](=O)[O-])NCc1cccnc1` [Compound 12, 1-(2-Dimethylaminoethyl)amino-1-(3-pyridylmethyl)amino-2-nitroethylene], the mortality at 500 µg/mL turned out to be 100%.

For `O=[N+]([O-])C=C(NCc1cccnc1)N1CCCC1` [Compound 20, 1-(3-Pyridylmethyl)amino-1-pyrrolidino-2-nitroethylene], the mortality at 500 µg/mL amounted to 100%.

For `CNC(=C[N+](=O)[O-])N(C)CCc1cccnc1` [Compound 55, 1-Methylamino-1-[N-methyl-N-[2-(3-pyridyl)ethyl]-amino]-2-nitroethylene], the mortality at 500 µg/mL is 100%.

Take `CN(Cc1cccnc1)C(=C[N+](=O)[O-])N(C)Cc1cccnc1` [Compound 57, 1,1-bis(N-methyl-N-3-pyridylmethyl)amino-2-nitroethylene]: the mortality at 500 µg/mL is 100%.

Take `CNC(=C[N+](=O)[O-])N(C)Cc1ccc(OC)nc1` [Compound 61, 1-[N-(6-Methoxy-3-pyridylmethyl)-N-methyl]amino-1-methylamino-2-nitroethylene]: the mortality at 500 µg/mL is 100%.

For the molecule `CNC(=C[N+](=O)[O-])N(C)Cc1ccncc1` [Compound 62, 1-Methylamino-1-[N-methyl-N-(4-pyridylmethyl)]-amino-2-nitroethylene], the mortality at 500 µg/mL is 100%.

`CNC(=C[N+](=O)[O-])N(Cc1cccnc1)OC` [Compound 64, 1-[N-methoxy-N-(3-pyridylmethyl)]amino-1-methyl-amino-2-nitroethylene]: the mortality at 500 µg/mL amounted to 100%.

For the molecule `CN(C=O)C(=C[N+](=O)[O-])N(C)Cc1cccnc1` [Compound 65, 1-(N-Formyl-N-methyl)amino-1-[N-methyl-N-(3-pyridyl-methyl)]amino-2-nitroethylene], the mortality at 500 µg/mL turned out to be 100%.

As to `COCCNC(=C[N+](=O)[O-])N(C)Cc1cccnc1` [Compound 67, 1-(2-Methoxyethyl)amino-1-[N-methyl-N-(3-pyridylmethyl)]amino-2-nitroethylene], the mortality at 500 µg/mL was found to be 100%.

The same data set, now with this note: emulsifiable concentrate diluted with water to 500 ppm, sprayed on rice seedlings (2-leaf stage), 10 ml per paper pot; 10 larvae per tube; 25° C.; dead insects counted 7 days after release.
For the molecule `COCCNC(=C[N+](=O)[O-])NCc1cccnc1` [Compound 14, 1-(2-Methoxyethyl)amino-1-(3-pyridylmetyl)amino-2-nitroethylene], the “% Mortality after 7 days” value is 100%.

For `CN(C)NC(=C[N+](=O)[O-])NCc1cccnc1` [Compound 24, 1-(2,2-Dimethyl-1-hydrazino)-1-(3-pyridylmethyl)amino-2-nitroethylene], the “% Mortality after 7 days” value was determined as 100%.

Take `CN(Cc1cccnc1)C(N)=C[N+](=O)[O-]` [Compound 25, 1-Amino-1-(N-methyl-N-3-pyridylmethyl)amino-2-nitroethylene]: the “% Mortality after 7 days” value came out at 100%.

For `CNC(=C[N+](=O)[O-])N(C)Cc1cccnc1` [Compound 26, 1-Methylamino-1-(N-methyl-N-3-pyridylmethyl)amino-2-nitroethylene], the “% Mortality after 7 days” value came out at 100%.

With `CNC(=C[N+](=O)[O-])N(C)Cc1ccc(Cl)nc1` [Compound 29, 1-[N-(6-Chloro-3-pyridylmethyl)-N-methyl]amino-1-methylamino-2-nitroethylene], the “% Mortality after 7 days” value came out at 100%.

As for `CCN(Cc1cccnc1)C(=C[N+](=O)[O-])NC` [Compound 31, 1-[N-Ethyl-N-(3-pyridylmethyl)]amino-1-methylamino-2-nitroethylene], the “% Mortality after 7 days” value stood at 100%.

For the molecule `CNC(=C[N+](=O)[O-])N(Cc1cccnc1)CC(OC)OC` [Compound 32, 1-[N-(2-Dimethoxyethyl)-N-(3-pyridylmethyl)]amino-1-methylamino-2-nitroethylene], the “% Mortality after 7 days” value is given as 100%.

Take `CCNC(=C[N+](=O)[O-])N(C)Cc1cccnc1` [Compound 33, 1-Ethylamino-1-[N-methyl-N-(3-pyridylmethy)]amino-2-nitroethylene]: the “% Mortality after 7 days” value was 100%.

For the molecule `CCCCNC(=C[N+](=O)[O-])N(C)Cc1cccnc1` [Compound 34, 1-n-Butylamino-1-[N-methyl-N-(3-pyridylmethyl)]amino-2-nitroethylene], the “% Mortality after 7 days” value was 100%.

Consider `CNC(=C[N+](=O)[O-])N(CCOC)Cc1cccnc1` [Compound 35, 1-Methyl-amino-1-[N-(2-methoxyethyl)-N-(3-pyridylmethyl)]amino-2-nitroethylene], for which the “% Mortality after 7 days” value was found to be 100%.

Turning to `CC(C)NC(=C[N+](=O)[O-])N(C)Cc1cccnc1` [Compound 37, 1-iso-Propylamino-1-[N-methyl-N-(3-pyridylmethyl)]-amino-2-nitroethylene], the “% Mortality after 7 days” value is 100%.

In the case of `CN(Cc1cccnc1)C(=C[N+](=O)[O-])NCc1ccccc1` [Compound 38, 1-Benzylamino-1-[N-methyl-N-(3-pyridylmethyl)l]amino-2-nitroethylene], the “% Mortality after 7 days” value turned out to be 100%.

Take `CNC(=C[N+](=O)[O-])N(C)C(C)c1cccnc1` (stereo not shown) [Compound 40, 1-Metylamino-1-[N-methyl-N-[1-(3-pyridyl)ethyl]]amino-2-nitroethylene]: the “% Mortality after 7 days” value worked out at 100%.

`CNC(=C[N+](=O)[O-])N(Cc1cccnc1)N(C)C` [Compound 41, 1-[2,2-Dimethyl-1-(3-pyridylmethyl)]hydrazino-1-methylamino-2-nitroethylene]: the “% Mortality after 7 days” value is 100%.

As for `CCCN(Cc1cccnc1)C(=C[N+](=O)[O-])NC` [Compound 42, 1-Methylamino-1-[N-(n-propyl)-N-(3-pyridylmethyl)]amino-2-nitroethylene], the “% Mortality after 7 days” value was 100%.

On to `CCCCN(C(=C[N+](=O)[O-])NC)c1cccnc1` [Compound 43], for which the “% Mortality after 7 days” value stood at 100%.

For `CNC(=C[N+](=O)[O-])N(Cc1ccccc1)Cc1cccnc1` [Compound 44, 1-[N-Benzyl-N-(3-pyridylmethyl)]amino-1-methylamino-2-nitroethylene], the “% Mortality after 7 days” value is recorded as 100%.

With `CN(Cc1ccc(Cl)nc1)C(N)=C[N+](=O)[O-]` [Compound 45, 1-Amino-1-[N-(6-chloro-3-pyridylmethyl)-N-methyl]-amino-2-nitroethylene], the “% Mortality after 7 days” value is reported as 100%.

With `CCN(Cc1ccc(Cl)nc1)C(=C[N+](=O)[O-])NC` [Compound 60, 1-[N-(6-Chloro-3-pyridylmethyl)-N-ethyl]amino-1-methylamino-2-nitroethylene], the “% Mortality after 7 days” value stood at 100%.
